ChEMBL document CHEMBL5104111, “Boron-Containing heterocycles as promising pharmacological agents” (Bioorg Med Chem, 2022)
Converted amounts (≈) assume the structure as drawn.

Experiments:
Plasmodium falciparum [1] = experiment: Antimalarial activity against Plasmodium falciparum W2 assessed as parasite growth inhibition; type: functional, organism-based
Plasmodium falciparum [2] = experiment: Antimalarial activity against Plasmodium falciparum 3D7 assessed as parasite growth inhibition; type: functional, organism-based
Carbonic anhydrase 2 = Carbonic anhydrase 2 (Homo sapiens, UniProt P00918); experiment: Binding affinity to human CA-II assessed as inhibition constant preincubated for 15 mins by bromothymol blue staining based assay
Carbonic anhydrase 1 = Carbonic anhydrase 1 (Homo sapiens, UniProt P00915); experiment: Binding affinity to human CA-I assessed as inhibition constant preincubated for 15 mins by bromothymol blue staining based assay
[3] = Binding affinity to Candida glabrata beta-carbonic anhydrase assessed as inhibition constant preincubated for 15 mins by bromothymol blue staining based assay; parameters: species or system Nakaseomyces glabratus
[4] = Binding affinity to Cryptococcus neoformans beta-carbonic anhydrase assessed as inhibition constant preincubated for 15 mins by bromothymol blue staining based assay
Hepatitis C virus = experiment: Antiviral activity against HCV GT1a316Y assessed as reduction in viral replication; type: functional, organism-based, Hepacivirus hominis
[5] = Dissociation constant, pKa of the compound; type: physicochemical
[6] = Half life in human; type: ADME
[7] = Inhibition of beta-lactamase KPC-2 (unknown origin) using nitrocefin as substrate preincubated for 5 mins followed by substrate addition measured after 1 to 5 mins by colorimetry; parameters: species or system Bacteria
[8] = Inhibition of beta-lactamase TEM-1 (unknown origin) using nitrocefin as substrate preincubated for 5 mins followed by substrate addition measured after 1 to 5 mins by colorimetry; parameters: species or system Bacteria
[9] = Inhibition of beta-lactamase OXA-24 (unknown origin) using nitrocefin as substrate preincubated for 5 mins followed by substrate addition measured after 1 to 5 mins in presence of KHCO3 by colorimetry; parameters: species or system Bacteria
[10] = Inhibition of beta-lactamase CTX-M-15 (unknown origin) using nitrocefin as substrate preincubated for 5 mins followed by substrate addition measured after 1 to 5 mins by colorimetry; parameters: species or system Bacteria
[11] = Inhibition of beta-lactamase P99 (unknown origin) using nitrocefin as substrate preincubated for 5 mins followed by substrate addition measured after 1 to 5 mins by colorimetry; parameters: species or system Bacteria
[12] = system: Mycobacterium tuberculosis; experiment: Antibacterial activity against Mycobacterium tuberculosis assessed as bacterial growth inhibition by broth microdilution method; type: functional
Trypanosoma brucei [13] = experiment: Antiparasitic activity against Trypanosoma brucei 427 assessed as parasite growth inhibition incubated for 24 hrs by fluorescence based assay; type: functional, organism-based; settings: Trypanosoma brucei, 427, 24 h
Trypanosoma brucei [14] = experiment: Antitrypanosomal activity against Trypanosoma brucei assessed as parasite growth inhibition; type: functional, organism-based
[15] = system: Mycobacterium tuberculosis; experiment: Antibacterial activity against Mycobacterium tuberculosis H37Rv assessed as bacterial growth inhibition cultured in 7H9 medium measured after 14 days by absorbance based assay; type: functional; settings: 336 h, time 14 day
[16] = system: Mycobacterium tuberculosis; experiment: Antibacterial activity against Mycobacterium tuberculosis H37Rv assessed as bacterial growth inhibition cultured in GAST medium measured after 14 days by absorbance based assay; type: functional; settings: 336 h, time 14 day
Candida albicans = experiment: Antifungal activity against Candida albicans assessed as fungal growth inhibition incubated for 48 hrs by agar diffusion method; type: functional
Penicillium ochrochloron = experiment: Antifungal activity against Penicillium ochrochloron assessed as fungal growth inhibition incubated for 72 hrs by agar diffusion method; type: functional
Aspergillus niger [17] = experiment: Antifungal activity against Aspergillus niger assessed as fungal growth inhibition incubated for 48 hrs by agar diffusion method; type: functional
Escherichia coli [18] = experiment: Antibacterial activity against Escherichia coli expressing tolC assessed as bacterial growth inhibition by broth microdilution method; type: functional
[19] = system: Staphylococcus epidermidis; experiment: Antibacterial activity against Staphylococcus epidermidis assessed as bacterial growth inhibition by broth microdilution method; type: functional
Onchocerca volvulus = experiment: Antiparasitic activity against third stage larvae of Onchocerca volvulus assessed as parasite growth inhibition incubated for 6 days by inverted microscopy; type: functional, organism-based; settings: 144 h
HepG2 = experiment: Cytotoxicity against human HepG2 cells assessed as cell growth inhibition incubated for 2 days by Cell Titer Glo assay; type: functional, cell-based; settings: HepG2, 48 h
[20] = system: Mycobacterium tuberculosis; experiment: Antibacterial activity against Mycobacterium tuberculosis H37Rv ATCC 25618 assessed as bacterial growth inhibition cultured in liquid media for 5 days by absorbance based assay; type: functional; settings: H37Rv ATCC 25618, 120 h, time 5 day
[21] = system: Mycobacterium tuberculosis; experiment: Antibacterial activity against Mycobacterium tuberculosis H37Rv ATCC 25618 assessed as bacterial growth inhibition cultured in solid media incubated for 3 to 4 weeks; type: functional; settings: time 3-4 weeks
[22] = system: Mycobacterium tuberculosis; experiment: Antibacterial activity against Mycobacterium tuberculosis H37Rv ATCC 25618 infected in human THP-1 cells assessed as bacterial growth inhibition at MOI of 1 incubated for 3 days by Cell Titer Glo assay; type: functional, organism-based; settings: H37Rv ATCC 25618, THP-1, 72 h
[23] = Bioavailability in monkey; type: ADME, organism-based, Macaca mulatta; settings: rhesus monkey, in vivo
[24] = Inhibition of Escherichia coli LeuRS using Escherichia coli tRNA as substrate incubated for 20 mins in presence of 14C-leucine/ATP
Escherichia coli [25] = experiment: Antibacterial activity against Escherichia coli ATCC 25922 assessed as bacterial growth inhibition; type: functional
Plasmodium falciparum [26] = experiment: Antimalarial activity against multidrug-resistant Plasmodium falciparum W2 assessed as parasite growth inhibition incubated for 48 hrs by FACS analysis; type: functional, organism-based; settings: W2, 48 h
[27] = molecular target: 3',5'-cyclic-AMP phosphodiesterase 4D (Homo sapiens, UniProt Q08499); experiment: Displacement of […] from full-length recombinant human PDE4D7 by fluorescence polarisation assay
[28] = molecular target: 3',5'-cyclic-AMP phosphodiesterase 4C (Homo sapiens, UniProt Q08493); experiment: Displacement of […] from full-length recombinant human PDE4C1 by fluorescence polarisation assay
[29] = molecular target: T1, 3',5'-cyclic-AMP phosphodiesterase 4B (Homo sapiens, UniProt Q07343); experiment: Displacement of […] from full-length recombinant human PDE4B2 catalytic domain by fluorescence polarisation assay
[30] = molecular target: T1, 3',5'-cyclic-AMP phosphodiesterase 4B; experiment: Displacement of […] from full-length recombinant human PDE4B1 by fluorescence polarisation assay
[31] = molecular target: T1, 3',5'-cyclic-AMP phosphodiesterase 4B; experiment: Displacement of […] from full-length recombinant human PDE4B2 by fluorescence polarisation assay
[32] = Bioavailability in Sprague-Dawley rat […] measured upto 7 hrs by LC/MS analysis; type: ADME, organism-based; settings: in vivo
[33] = Half life in Sprague-Dawley rat at 1 mg/kg, po or 1 mg/kg, iv measured upto 7 hrs by LC/MS analysis; type: ADME, organism-based; settings: in vivo
[34] = molecular target: Cyclin-dependent kinase 2 (Homo sapiens, UniProt P24941); experiment: Inhibition of CDK2 (unknown origin) using peptide substrate in presence of ATP
[35] = Tmax in Sprague-Dawley rat at 1 mg/kg, po or 1 mg/kg, iv measured upto 7 hrs by LC/MS analysis; type: ADME, organism-based; settings: in vivo
[36] = AUC in Sprague-Dawley rat at 1 mg/kg, po measured upto 7 hrs by LC/MS analysis; type: ADME, organism-based; parameters: dose 1 mg/kg, time < 7 hrs, route po; settings: in vivo
[37] = Cmax in Sprague-Dawley rat at 1 mg/kg, po or 1 mg/kg, iv measured upto 7 hrs by LC/MS analysis; type: ADME, organism-based; parameters: time < 7 hrs, dose 1 mg/kg, route po; settings: in vivo
Aspergillus niger [38] = experiment: Antifungal activity against Aspergillus niger assessed as fungal growth inhibition; type: functional

T1 sequence (Q07343 whole entry, the tested form may be a part): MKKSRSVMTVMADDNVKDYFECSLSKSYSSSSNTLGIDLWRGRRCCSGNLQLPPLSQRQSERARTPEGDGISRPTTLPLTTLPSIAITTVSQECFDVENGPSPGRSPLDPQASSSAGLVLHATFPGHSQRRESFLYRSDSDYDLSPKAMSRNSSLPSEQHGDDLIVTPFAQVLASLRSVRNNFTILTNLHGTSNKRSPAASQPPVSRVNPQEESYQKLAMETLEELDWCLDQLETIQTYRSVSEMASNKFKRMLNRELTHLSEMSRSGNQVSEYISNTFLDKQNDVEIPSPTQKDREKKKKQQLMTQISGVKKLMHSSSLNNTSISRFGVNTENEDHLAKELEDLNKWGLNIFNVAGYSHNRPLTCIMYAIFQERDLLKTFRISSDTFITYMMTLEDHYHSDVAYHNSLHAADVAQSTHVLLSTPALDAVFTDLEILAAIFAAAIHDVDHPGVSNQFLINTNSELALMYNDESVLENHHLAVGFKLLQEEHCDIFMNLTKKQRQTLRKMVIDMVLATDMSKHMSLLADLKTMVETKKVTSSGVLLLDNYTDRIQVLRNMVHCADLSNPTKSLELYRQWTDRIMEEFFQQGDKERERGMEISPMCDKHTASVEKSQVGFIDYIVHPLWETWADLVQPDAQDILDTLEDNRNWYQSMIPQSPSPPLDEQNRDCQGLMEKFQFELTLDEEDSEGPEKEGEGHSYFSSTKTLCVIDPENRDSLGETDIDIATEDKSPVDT
Chain of 3',5'-cyclic-AMP phosphodiesterase 4D (Q08499 whole entry): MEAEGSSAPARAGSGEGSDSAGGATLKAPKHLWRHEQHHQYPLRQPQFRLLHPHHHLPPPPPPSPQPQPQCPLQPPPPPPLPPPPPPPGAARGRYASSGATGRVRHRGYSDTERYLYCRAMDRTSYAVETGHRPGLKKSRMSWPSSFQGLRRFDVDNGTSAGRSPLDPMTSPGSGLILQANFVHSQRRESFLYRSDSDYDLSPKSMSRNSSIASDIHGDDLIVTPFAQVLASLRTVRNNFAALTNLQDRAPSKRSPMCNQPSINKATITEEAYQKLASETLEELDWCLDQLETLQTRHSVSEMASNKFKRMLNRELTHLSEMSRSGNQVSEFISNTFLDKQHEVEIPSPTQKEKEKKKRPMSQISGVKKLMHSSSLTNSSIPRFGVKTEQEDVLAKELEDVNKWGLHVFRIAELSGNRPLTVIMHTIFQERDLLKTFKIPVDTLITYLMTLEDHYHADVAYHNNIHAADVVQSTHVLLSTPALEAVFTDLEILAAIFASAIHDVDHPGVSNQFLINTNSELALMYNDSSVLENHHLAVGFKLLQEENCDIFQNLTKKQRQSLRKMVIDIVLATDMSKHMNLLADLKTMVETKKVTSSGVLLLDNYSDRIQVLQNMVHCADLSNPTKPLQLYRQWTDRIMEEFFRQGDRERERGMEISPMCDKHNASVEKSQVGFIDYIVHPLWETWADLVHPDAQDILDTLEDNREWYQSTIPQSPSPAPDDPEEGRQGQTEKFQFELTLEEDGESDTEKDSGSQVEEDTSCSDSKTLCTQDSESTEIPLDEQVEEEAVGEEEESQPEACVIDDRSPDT
Chain of 3',5'-cyclic-AMP phosphodiesterase 4C (Q08493 whole entry, the tested form may be a part): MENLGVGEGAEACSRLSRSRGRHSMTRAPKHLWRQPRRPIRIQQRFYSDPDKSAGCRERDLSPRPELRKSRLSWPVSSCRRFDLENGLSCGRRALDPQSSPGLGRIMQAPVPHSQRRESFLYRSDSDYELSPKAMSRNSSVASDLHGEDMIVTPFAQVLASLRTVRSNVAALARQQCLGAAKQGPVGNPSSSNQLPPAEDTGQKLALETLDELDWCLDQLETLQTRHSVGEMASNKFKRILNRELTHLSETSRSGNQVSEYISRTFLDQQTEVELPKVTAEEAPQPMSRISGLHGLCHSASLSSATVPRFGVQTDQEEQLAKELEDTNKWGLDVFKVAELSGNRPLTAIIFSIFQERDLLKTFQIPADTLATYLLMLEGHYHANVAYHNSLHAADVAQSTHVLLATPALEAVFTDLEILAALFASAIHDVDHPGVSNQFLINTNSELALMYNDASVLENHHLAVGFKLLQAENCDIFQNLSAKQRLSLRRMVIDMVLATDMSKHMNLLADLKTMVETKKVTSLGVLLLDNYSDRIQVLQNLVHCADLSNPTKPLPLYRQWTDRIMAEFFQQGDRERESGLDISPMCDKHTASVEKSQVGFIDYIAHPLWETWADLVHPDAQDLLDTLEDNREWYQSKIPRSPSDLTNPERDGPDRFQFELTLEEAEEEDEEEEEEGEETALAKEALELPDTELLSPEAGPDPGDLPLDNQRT
Chain of Carbonic anhydrase 1 (P00915 whole entry): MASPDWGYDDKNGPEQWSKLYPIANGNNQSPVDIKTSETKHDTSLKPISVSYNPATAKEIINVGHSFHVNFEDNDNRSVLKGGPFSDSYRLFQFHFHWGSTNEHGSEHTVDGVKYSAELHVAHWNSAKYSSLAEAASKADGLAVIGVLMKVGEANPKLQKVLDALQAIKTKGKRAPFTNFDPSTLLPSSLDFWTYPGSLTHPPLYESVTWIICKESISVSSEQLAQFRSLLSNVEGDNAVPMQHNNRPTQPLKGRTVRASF

Work on Cc1c(Oc2cnc(C(=O)N3CC(C)(O)C3)cn2)ccc2c1B(O)OC2 yielded an IC50 (Plasmodium falciparum [1]) of 33000 nM and an IC50 (Plasmodium falciparum [2]) of 43000 nM.
Compound O=[N+]([O-])c1ccc(NC(=S)Nc2ccc3c(c2)B(O)OC3)cc1 has a Ki (Carbonic anhydrase 2) of 504 nM, a Ki (Carbonic anhydrase 1) of 6350 nM and a Ki [3] of 89 nM. The Ki [4] was 88 nM.
Work on CNC(=O)c1c(-c2ccc(F)cc2)oc2cc(N(c3cc(Cl)c4c(c3)COB4O)S(C)(=O)=O)c(C3CC3)cc12 yielded an EC50 (Hepatitis C virus) of 32 nM, a pKa [5] of 5.4 and a half-life [6] of 60 h.
With Cc1c(Oc2nc(N)ns2)cc2c(c1C)[C@@H](CC(=O)O)OB2O the IC50 [7] was 26 nM, the IC50 [8] was < 5 nM and the IC50 [9] was 88 nM. The IC50 [10] was < 5 nM and the IC50 [11] was 12 nM.
For O=C(/C=C/c1ccc2c(c1)OCO2)Nc1ccc2c(c1)B(O)OC2, the MIC99 [12] was 40.7 µM (≈ 13.2 µg/mL), the IC50 (Trypanosoma brucei [13]) was 86 nM and the IC50 (Trypanosoma brucei [14]) was 100 nM.
With Nc1cc2c(cc1Br)COB2O the MIC99 [15] was 7.8 µM (≈ 1.78 µg/mL) and the MIC99 [16] was 1.9 µM (≈ 0.433 µg/mL).
In the case of OB1OC(N2CCN(C3OB(O)c4cccc(F)c43)CC2)c2c(F)cccc21 (stereo not given), the “inhibition zone (IZ)” value (Candida albicans) is reported as 35 mm, the “inhibition zone (IZ)” value (Penicillium ochrochloron) is reported as 41 mm and the “inhibition zone (IZ)” value (Aspergillus niger [17]) is reported as 41 mm.
Work on CC[C@H]1OC(=O)[C@H](C)[C@@H](O[C@H]2C[C@@](C)(OC)[C@@H](O)[C@H](C)O2)[C@H](C)[C@@H](O[C@@H]2O[C@H](C)C[C@H](N(C)C)[C@H]2O)[C@](C)(OC)C[C@@H](C)/C(=N\OCC(=O)NC[C@H]2OB(O)c3ccccc32)[C@H](C)[C@@H](O)[C@]1(C)O yielded an MIC (Escherichia coli [18]) of 8 µg/mL (≈ 8.28 µM) and an MIC [19] of 0.5 µg/mL (≈ 0.518 µM).
With COC(=O)Nc1nc2cc(C(=O)NCc3ccc4c(c3)B(O)OC4(C)C)ccc2[nH]1 the IC50 (Onchocerca volvulus) was 300 nM.
For Cc1c(OCc2ccccc2)ccc2c1B(O)OC2, the IC50 (HepG2) was > 100000 nM, the MIC [20] was 2 µM (≈ 0.508 µg/mL) and the MIC [21] was 0.8 µM (≈ 0.203 µg/mL). The IC50 [22] was 3600 nM.
Cl.NC[C@H]1OB(O)c2c1ccc1c2OCO1 showed a bioavailability [23] of 100%, an IC50 [24] of 380 nM and an MIC (Escherichia coli [25]) of 1 µg/mL.
With CCOc1ccc(Br)c2c1B(O)O[C@@H]2CC the IC50 (Plasmodium falciparum [26]) was 490 nM.
In the case of CC(C)OCCOc1ncc(Oc2ccc3c(c2)B(O)OC3)cc1C#N, the IC50 [27] is reported as 2.1 nM, the IC50 [28] is reported as 2.1 nM and the IC50 [29] is reported as 2.1 nM. For the same compound, the IC50 [30] was 2.1 nM and the IC50 [31] was 2.1 nM.
Compound O=C(Cc1ccc(B2C=CC=CN2)cc1)Nc1cc(C2CC2)[nH]n1 has a bioavailability [32] of 29.3%, a half-life [33] of 11.6 h and an IC50 [34] of 87 nM. The Tmax [35] was 1.5 h, the AUC at 7 h [36] was 0.613 µM·h and the Cmax [37] was 746 nM.
OB1OC(N2CCN(c3ccc(F)cc3)CC2)c2ccccc21 (stereo not given) showed an MIC (Aspergillus niger [38]) of 62.5 µg/mL (≈ 200 µM).
